Test results: patent publication US20260191821A1, “COMPOSITIONS AND METHODS FOR TREATING NEURODEGENERATIVE DISEASES” (The General Hospital Corporation, priority 2023, published 2026)
Where two headings read alike, the source gives them in different places.

Legend:
[1] = test system: BV2 microglial cells; experiment: Microglial Aβ42 uptake/clearance in BV2 microglial cells, measured by Aβ ELISA; format: cell-based
Experimental: Urolithin A was identified as a top-tier enhancer of Aβ clearance by microglia in an unbiased (and biased) screening of natural product compounds. Cellular assay models based on BV2 microglial cells were used to assess the ability of microglia to phagocytose synthetic Aβ42 peptides, a major pathogenic Aβ isoform of Alzheimer's disease Aβ species (microglial uptake/clearance).
The ability of the agents, alone or in combination, to increase microglial Aβ uptake was also assessed (FIG. 9). […] FIGS. 11B-11D and FIGS. 12A-12F show TNFα levels in response to treatment with cat's claw (#134), urolithin A (#144), fisetin (NP-82) and quercetin (NP-162), alone or in various combinations.

[2] = test system: TNFα; experiment: TNFα release by LPS-activated BV2 microglial cells, ELISA on conditioned cell media; format: cell-based; settings: for TNFα release / LPS-induced microglial pro-inflammatory activation: Example 1, BV2 cells, FIGS. 2, 4B, 5; for TNFα release / LPS-induced microglial pro-inflammatory activation / EC50: 1 μg/mL LPS for 5 hours; for EC50: Mus musculus, BV-2, BV2 cells, read-out: EC50 of TNFα reduction
Experimental: Effects of urolithin A and fisetin on the reduction of pro-inflammatory cytokines levels, such as TNFα, were assessed in an unbiased library screening. BV2 microglial cells were converted to a pro-inflammatory activation state by acute treatment with 1 μg/mL of Lipopolysaccharide (LPS) for 5 hours in the presence of a vehicle or urolithin A or fisetin. Effects on inflammation were assessed by measuring levels of a representative pro-inflammatory cytokine, TNFα, via an ELISA assay on the conditioned cell media. FIGS. 2A and 2B show representative results of the dose-response reduction of TNFα after treatment with LPS and urolithin A and fisetin, respectively.
BV2 microglial cells were next treated with 1 μg/mL of LPS for 5 hours in the presence of urolithin A and fisetin at different concentrations, alone or in combination (FIG. 5). Levels of TNFα secreted by the microglial cells into the conditioned cell media were measured using ELISA.
Effects of urolithin A, fisetin, nicotinamide riboside, cat's claw, and quercetin, alone or in combination, on TNFα concentration were assessed (FIGS. 6A-6E and 7A-7C). BV2 microglial cells were converted to a pro-inflammatory activation state by acute treatment with 1 μg/mL of Lipopolysaccharide (LPS) for 5 hours in the presence of a vehicle or nicotinamide riboside (#101), cat's claw (#134), urolithin A (#144), fisetin (NP-82) or quercetin (NP-162), alone or in combination. Effects on inflammation were assessed by measuring levels of TNF&, via an ELISA assay on the conditioned cell media.

[3] = 500 mg to 1000 mg daily; cited from earlier work

## O=c1oc2cc(O)ccc2c2ccc(O)cc12 [urolithin A, 3,8-dihydroxy-6H-benzo[b,d]pyran-6-one]
[1]; Example 1, BV2 microglial cells, FIG. 1 and FIG. 3
  microglial Aβ uptake/clearance: increases microglial Aβ uptake/clearance in a dose-dependent manner
[1]; Mus musculus, BV-2, BV2 microglial cells, synthetic Aβ42 peptides, FIG. 1
  EC50: 12.4 µM
[2]
  TNFα release / LPS-induced microglial pro-inflammatory activation: reduce TNFα release by LPS-activated microglia in a dose-dependent manner
[2]; FIG. 2A
  EC50: 21 µM
[3]
  reported safety and/or usefulness: safe and/or useful

## O=c1c(O)c(-c2ccc(O)c(O)c2)oc2cc(O)ccc12 [fisetin, 3,3′,4′,7-tetrahydroxyflavone]
[2]
  TNFα release / LPS-induced microglial pro-inflammatory activation: reduce TNFα release by LPS-activated microglia in a dose-dependent manner
[2]; FIG. 2B
  EC50: 8 µM
[2]; fisetin alone, LPS-treated BV2 microglia cells, FIG. 4B
  reduction of TNFα levels: roughly 75%
